# In PMC3831368 (Bioorganic & medicinal chemistry, 2013):
# Key:
# [1] = target: T1, MOR (Mus musculus, UniProt P42866); settings: in vitro radioligand competition binding; cited from earlier work
# [2] = target: W318A MOR (Mus musculus, UniProt P42866, W318A); assay: Competition binding to site-directed mutated MOR W318A; settings: read-out: W318A MOR IC50; ± SEM; transient CHO cells
# [3] = system: morphine antinociception; settings: cited from earlier work
# [4] = target: T1, MOR; settings: cited from earlier work
# T1 sequence (P42866 whole entry): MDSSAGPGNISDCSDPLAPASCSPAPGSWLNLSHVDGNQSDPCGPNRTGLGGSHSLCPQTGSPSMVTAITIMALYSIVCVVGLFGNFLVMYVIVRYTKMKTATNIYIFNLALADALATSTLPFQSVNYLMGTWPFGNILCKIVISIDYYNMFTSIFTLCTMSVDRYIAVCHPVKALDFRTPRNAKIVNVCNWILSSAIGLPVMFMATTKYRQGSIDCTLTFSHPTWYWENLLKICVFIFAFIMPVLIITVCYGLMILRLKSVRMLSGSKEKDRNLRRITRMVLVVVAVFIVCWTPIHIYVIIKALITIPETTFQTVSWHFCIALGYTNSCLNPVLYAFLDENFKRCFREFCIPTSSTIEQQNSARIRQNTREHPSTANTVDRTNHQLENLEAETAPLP
# Chain of W318A MOR (P42866 whole entry W318A): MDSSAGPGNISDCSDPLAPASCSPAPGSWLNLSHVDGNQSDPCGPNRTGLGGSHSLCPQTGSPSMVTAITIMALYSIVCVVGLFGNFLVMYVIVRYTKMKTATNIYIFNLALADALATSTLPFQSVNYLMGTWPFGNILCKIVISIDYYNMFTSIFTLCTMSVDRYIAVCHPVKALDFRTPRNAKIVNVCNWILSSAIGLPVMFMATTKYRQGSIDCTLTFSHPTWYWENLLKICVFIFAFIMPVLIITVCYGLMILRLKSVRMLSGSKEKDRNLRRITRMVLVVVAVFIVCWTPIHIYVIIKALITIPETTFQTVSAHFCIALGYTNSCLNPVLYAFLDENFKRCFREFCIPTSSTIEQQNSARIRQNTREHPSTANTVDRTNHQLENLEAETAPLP
smiles,measurement,setting,value
O=C(N[C@H]1CC[C@@]2(O)[C@H]3Cc4ccc(O)c5c4[C@@]2(CCN3CC2CC2)[C@H]1O5)c1cc2ccccc2cn1 [NAQ],affinity for the MOR,[1],sub-nanomolar
same,IC50,[2],> 1 µM
same,antagonism in in vivo antinociceptive test against morphine,[3],potent antagonism
same,agonism in the in vitro GTPγS assay,[4],marginal partial agonism
O=C(N[C@@H]1CC[C@@]2(O)[C@H]3Cc4ccc(O)c5c4[C@@]2(CCN3CC2CC2)[C@H]1O5)c1ccncc1 [NAP],affinity for the MOR,[1],sub-nanomolar
same,antagonism in in vivo antinociceptive test against morphine,[3],potent antagonism
same,agonism in the in vitro GTPγS assay,[4],marginal partial agonism
